From ChEMBL document CHEMBL1157259, “Cytotoxic and other compounds from Didymochlaena truncatula from the Madagascar rain forest” (J Nat Prod, 2006) come the findings set out here.

Values after ≈ are worked out from the molar mass of the structure shown.

The term IC50 denotes the concentration at which inhibition is half-maximal.

The test concerns A2780. Briefly: Cytotoxicity against human A2780 cells by clonogenic assay. The test is classed as functional, cell-based.
As for `CC[C@@]1(O)C(=O)OCc2c1cc1n(c2=O)Cc2cc3c(OC)cccc3nc2-1`, half-maximal inhibition (IC50) required 0.02 µg/mL (≈ 0.0529 µM).

`CC[C@@]1(O)C(=O)OCc2c1cc1n(c2=O)Cc2cc3ccccc3nc2-1` [CAMPTOTHECIN]: the half-inhibitory concentration (IC50) was 0.07 µg/mL (≈ 0.201 µM).

For `COc1cc(O)cc(/C=C/c2ccccc2)c1` [PINOSYLVIN METHYL ETHER], the IC50 came out at 10 µg/mL (≈ 44.2 µM).
